Data as given in patent US20230322776A1, “NEW ARYL-PYRIDO-PYRIMIDIN-ONE DERIVATIVES” (Hoffmann-La Roche Inc., priority 2020, published 2023).

What was measured:
BRAF V660E = BRAF V660E (Homo sapiens, UniProt P15056, V600E); assay: KD BRAF V660E (Table 1; no method described); type: binding
BRAF = BRAF (Homo sapiens, UniProt P15056); assay: KD BRAF (Table 1; no method described); type: binding
[1] = tested on: A375 cells (V600E mutated BRAF), ERK phospho-T202/Y204; assay: HTRF assay for P-ERK determination in A375 cells (BRAF inhibition); type: cell-based; details: Homo sapiens, A-375, 1 hour drug incubation, DMSO = 100%, 10 μM Dabrafenib = 0%, top concentration 10 μM, read-out: P-ERK_A375: IC50
Text: (§1) A375 is a cellular cancer model expressing V600E mutated BRAF and HCT116 a cellular cancer model expressing WT BRAF. First generation BRAF inhibitors such as e.g. dabrafenib induce a paradox effect on tumour cells in that they inhibit the growth of V600E mutated BRAF cells (such as e.g. A375), while they activate growth in WT BRAF cells (such as e.g. HCT 116). ERK 1,2 phosphorylation (terminal member of the phosphorylation cascade of the MAPK pathway) is hereafter reported as main readout for the activation status of the MAPK pathway. DMEM no-phenol red medium supplemented with L-glutamine was purchased from (Thermo Fisher Scientific). Fetal bovine serum (FBS) was purchased from VWR. Advanced ERK phospho-T202/Y204 kit—10,000 tests was purchased from Cisbio cat #64AERPEH. A375 (catalog #CRL-1619) and HCT116 (catalog #CCL-247) cells were originally obtained from American type Culture Collection (ATCC) and banked by the Roche repository. 384-Well microplates ultized were purchased from Greiner Bio-One, 384-well, (With Lid, HiBase, Low volume cat 784-080).
(§2) HTRF Assay for P-ERK Determination in A375 or HCT116 Cells
(§3) Prior to the assay, A375 and HCT116 cell lines are maintained in DMEM no-phenol red medium supplemented with 10% fetal bovine serum (FBS). Following compound treatment, P-ERK levels are determined by measuring FRET fluorescence signal induced by selective binding of two antibodies provided in the mentioned kit (Cisbio cat #64AERPEH) on ERK protein when phosphorylated at Thr202/Tyr204. Briefly, 8000 cells/well in 12 μl media/well are plated in the 384-well plate and left overnight in the incubator (at 37° C. with 5% CO2-humidified atmosphere), the following day the plate is treated in duplicate with test compounds, dabrafenib and PLX8394 (the latter two as controls) at the following final drug concentrations: 10 μM, 3 μM, 1 μM, 0.3 μM, 0.1 μM, 0.03 μM, 0.01 μM, 0.003 μM and 0.001 μM. All wells are subjected to DMSO normalization and drug incubation occurs for 1 hour. Then, 4 μl of a 4× lysis buffer supplied with the kit are added to the wells, the plate is then centrifuged for 30 second (3000 rpm) and incubated on a plate shaker for 1 h at rt.
(§4) At the end of the incubation 4 μl/well of advanced P-ERK antibody solution (prepared according to manufacturer's instruction) followed by 4 μl/well of criptate P-ERK antibody solution (prepared according to manufacturer's instruction) (Cisbio cat #64AERPEH) are added to test wells.
(§5) In order to allow proper data normalization, control wells non drug treated reported in the following table are always included in each plate (according to manufacturer's instruction):
(§6) The plate is then centrifuged at 3000 rpm for 30 seconds, sealed to prevent evaporation and incubated overnight in the dark at room temperature. The plate is then analyzed and fluorescence emission value collected through a Pherastast FSX (BMG Labtech) apparatus at […]. The obtained fluorescence values are processed according to the formula Ratio=[…]*10000 then the average of the ratio on the blank is subtracted to all values.
Data are normalized in the case of A375 cells (BRAF inhibition) considering the average of the ratio (blank subtracted) derived by DMSO only treated cells as 100% and by considering the average of the ratio (blank subtracted) derived by 10 μM Dabrafenib treated cells as 0%. Mean of the normalized points are fitted with sigmoidal curve and IC50 values are determined.

[2] = tested on: HCT116 cells (WT BRAF), ERK phospho-T202/Y204; assay: HTRF assay for P-ERK determination in HCT116 cells (BRAF activation, paradox); type: cell-based; details: for EC50: Homo sapiens, HCT-116, HCT116 cells, 1 hour drug incubation, activation relative to maximum Dabrafenib-mediated activation (100%), top concentration 10 μM, read-out: P-ERK_HCT-116: EC50—50PCT; for Fold Selectivity HCT-116 EC50-50/ A375: ratio of P-ERK HCT-116 EC50-50PCT to P-ERK A375 IC50
Text: as §1, §2, §3, §4, §5, §6
Data are normalized in the case of HCT116 cells (BRAF activation) considering the average of the ratio (blank subtracted) derived by DMSO only treated cells as 0% and by considering the average of the ratio (blank subtracted) derived by Dabrafenib treated cells at the concentration which provides the highest signal as 100%. Individual points are fitted with either sigmoidal or bell shape curves, the percentage of activation compared to maximum Dabrafenib-mediated activation is determined.

Chain of BRAF V660E (P15056 2-766 V600E): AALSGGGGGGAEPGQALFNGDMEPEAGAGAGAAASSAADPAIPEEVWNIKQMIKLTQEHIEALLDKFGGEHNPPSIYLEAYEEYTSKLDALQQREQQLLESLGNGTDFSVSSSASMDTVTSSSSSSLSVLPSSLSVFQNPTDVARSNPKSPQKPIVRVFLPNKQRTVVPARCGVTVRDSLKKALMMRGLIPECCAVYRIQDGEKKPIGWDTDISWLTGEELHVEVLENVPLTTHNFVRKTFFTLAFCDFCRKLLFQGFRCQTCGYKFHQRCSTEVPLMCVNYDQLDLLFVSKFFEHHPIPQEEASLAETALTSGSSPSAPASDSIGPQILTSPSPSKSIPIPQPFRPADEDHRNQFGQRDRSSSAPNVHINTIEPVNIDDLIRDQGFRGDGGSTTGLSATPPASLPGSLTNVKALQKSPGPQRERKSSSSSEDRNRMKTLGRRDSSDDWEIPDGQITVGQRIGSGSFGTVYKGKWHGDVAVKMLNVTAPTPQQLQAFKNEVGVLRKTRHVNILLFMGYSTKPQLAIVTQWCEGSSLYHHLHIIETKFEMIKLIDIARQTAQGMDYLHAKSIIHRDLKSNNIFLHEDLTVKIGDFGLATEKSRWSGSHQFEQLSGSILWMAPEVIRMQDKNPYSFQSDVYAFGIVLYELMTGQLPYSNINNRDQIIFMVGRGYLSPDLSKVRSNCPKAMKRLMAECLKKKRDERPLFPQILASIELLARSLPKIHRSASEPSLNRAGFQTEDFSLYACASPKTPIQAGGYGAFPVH
Chain of BRAF (P15056 whole entry): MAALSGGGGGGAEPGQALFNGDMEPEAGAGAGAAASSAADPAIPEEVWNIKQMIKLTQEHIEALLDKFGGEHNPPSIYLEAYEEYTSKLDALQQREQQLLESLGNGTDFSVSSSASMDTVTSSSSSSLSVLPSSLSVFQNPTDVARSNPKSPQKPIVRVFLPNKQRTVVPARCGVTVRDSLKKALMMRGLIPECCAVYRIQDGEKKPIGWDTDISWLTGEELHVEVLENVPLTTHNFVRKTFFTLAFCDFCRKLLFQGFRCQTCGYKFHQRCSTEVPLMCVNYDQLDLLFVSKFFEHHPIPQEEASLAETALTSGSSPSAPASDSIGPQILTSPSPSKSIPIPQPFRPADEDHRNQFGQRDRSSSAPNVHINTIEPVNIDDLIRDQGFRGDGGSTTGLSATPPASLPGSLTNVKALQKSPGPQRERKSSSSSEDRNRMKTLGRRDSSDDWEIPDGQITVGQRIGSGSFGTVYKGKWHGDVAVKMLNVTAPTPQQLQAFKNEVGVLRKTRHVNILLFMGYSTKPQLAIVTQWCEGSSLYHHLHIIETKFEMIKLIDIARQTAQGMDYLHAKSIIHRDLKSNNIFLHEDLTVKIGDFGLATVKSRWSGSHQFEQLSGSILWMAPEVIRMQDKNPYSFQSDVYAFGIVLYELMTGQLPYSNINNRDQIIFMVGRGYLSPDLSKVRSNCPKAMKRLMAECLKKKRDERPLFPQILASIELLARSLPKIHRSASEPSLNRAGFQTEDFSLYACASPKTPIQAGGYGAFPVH

Kd (BRAF V660E) [nM] | Kd (BRAF) [nM] | IC50 [1] [nM] | EC50 [2] [nM] | Fold Selectivity HCT-116 EC50-50/ A375 [2] | Structure (SMILES)
37.5 | 19 | 9.9 | 645 | 65.1 | Cn1c(=O)c(-c2c(F)ccc(NS(=O)(=O)N3CC[C@@H](F)C3)c2F)cc2cnc(NCC3CC3)nc21 [Example 10, (3R)-N-[3-[2-(cyclopropylmethylamino)-8-methyl-7-oxopyrido[2,3-d]pyrimidin-6-yl]-2,4-difluorophenyl]-3-fluoropyrrolidine-1-sulfonamide]
56.1 | 21.2 | 844 | ≥ 10000 | >11.8 | CC(=O)NCCOCCOCCn1c(=O)c(-c2c(F)ccc(NS(=O)(=O)N3CC[C@@H](F)C3)c2F)cc2cnc(NCC3CC3)nc21 [Example 41, N-[2-[2-[2-[2-(cyclopropylmethylamino)-6-[2,6-difluoro-3-[[(3R)-3-fluoropyrrolidin-1-yl]sulfonylamino]phenyl]-7-oxopyrido[2,3-d]pyrimidin-8-yl]ethoxy]ethoxy]ethyl]acetamide]
59.6 | 38.3 | 7210 | ≥ 10000 | 1.4 | Cl.Cn1c(=O)c(-c2c(F)ccc(NS(=O)(=O)N3CC[C@@H](F)C3)c2F)cc2cnc(NCCCC(=O)NC3CCNCC3)nc21 [Example 19, 4-[[6-[2,6-difluoro-3-[[(3R)-3-fluoropyrrolidin-1-yl]sulfonylamino]phenyl]-8-methyl-7-oxopyrido[2,3-d]pyrimidin-2-yl]amino]-N-piperidin-4-ylbutanamide hydrochloride]
50.4 | 22.6 | 378 | 4840 | 12.8 | CC(=O)N1CCC(n2c(=O)c(-c3c(F)ccc(NS(=O)(=O)N4CC[C@@H](F)C4)c3F)cc3cnc(NCC4CC4)nc32)C1 (mixture of isomers) [Example 42, (3R)-N-[3-[8-((3RS)-1-acetylpyrrolidin-3-yl)-2-(cyclopropylmethylamino)-7-oxopyrido[2,3-d]pyrimidin-6-yl]-2,4-difluorophenyl]-3-fluoropyrrolidine-1-sulfonamide]
12.9 | 5.5 | 108 | 404 | 3.7 | CC(=O)N[C@H]1C[C@H](n2c(=O)c(-c3c(F)ccc(NS(=O)(=O)N4CC[C@@H](F)C4)c3F)cc3cnc(NCC4CC4)nc32)C1 [Example 43, trans-N-[3-[2-(cyclopropylmethylamino)-6-[2,6-difluoro-3-[[(3R)-3-fluoropyrrolidin-1-yl]sulfonylamino]phenyl]-7-oxopyrido[2,3-d]pyrimidin-8-yl]cyclobutyl]acetamide]
60.1 | 24.9 | 3170 | ≥ 10000 | >3.2 | CC(=O)N1CCC(NC(=O)CCCNc2ncc3cc(-c4c(F)ccc(NS(=O)(=O)N5CC[C@@H](F)C5)c4F)c(=O)n(C)c3n2)CC1 [Example 33, N-(1-acetylpiperidin-4-yl)-4-[[6-[2,6-difluoro-3-[[(3R)-3-fluoropyrrolidin-1-yl]sulfonylamino]phenyl]-8-methyl-7-oxopyrido[2,3-d]pyrimidin-2-yl]amino]butanamide]

Continued, molecule first:

Structure (SMILES) | Kd (BRAF V660E) [nM] | Kd (BRAF) [nM] | IC50 [1] [nM] | EC50 [2] [nM] | Fold Selectivity HCT-116 EC50-50/ A375 [2]
CC(=O)NCc1ccc(CCNc2ncc3cc(-c4c(F)ccc(NS(=O)(=O)N5CC[C@@H](F)C5)c4F)c(=O)n(C)c3n2)cc1 [Example 35, N-[[4-[2-[[6-[2,6-difluoro-3-[[(3R)-3-fluoropyrrolidin-1-yl]sulfonylamino]phenyl]-8-methyl-7-oxopyrido[2,3-d]pyrimidin-2-yl]amino]ethyl]phenyl]methyl]acetamide] | 22.1 | 5.7 | 37.3 | 1490 | 40.0
CC(=O)NCc1cccc(CCNc2ncc3cc(-c4c(F)ccc(NS(=O)(=O)N5CC[C@@H](F)C5)c4F)c(=O)n(C)c3n2)c1 [Example 34, N-[[3-[2-[[6-[2,6-difluoro-3-[[(3R)-3-fluoropyrrolidin-1-yl]sulfonylamino]phenyl]-8-methyl-7-oxopyrido[2,3-d]pyrimidin-2-yl]amino]ethyl]phenyl]methyl]acetamide] | 4 | 1.8 | 11.5 | 681 | 59.1
CCN(C)S(=O)(=O)Nc1ccc(F)c(-c2cc3cnc(NCC4CC4)nc3n(CCOCc3ccccc3)c2=O)c1F [Example 44, 2-(Cyclopropylmethylamino)-6-[3-[[ethyl(methyl)sulfamoyl]amino]-2,6-difluorophenyl]-7-oxo-8-(2-phenylmethoxyethyl)pyrido[2,3-d]pyrimidine] | 1750 | 1380 | 1900 | ≥ 10000 | >5.3
CCN(C)S(=O)(=O)Nc1ccc(F)c(-c2cc3cnc(NCCOCCOCCO)nc3n(C)c2=O)c1F [Example 9, 6-[3-[[ethyl(methyl)sulfamoyl]amino]-2,6-difluorophenyl]-2-[2-[2-(2-hydroxyethoxy)ethoxy]ethylamino]-8-methyl-7-oxopyrido[2,3-d]pyrimidine] | 417 | 136 | 153 | ≥ 10000 | >65.4
Cn1c(=O)c(-c2c(F)ccc(NS(=O)(=O)N3CC[C@@H](F)C3)c2F)cc2cnc(NCCCC(=O)OC(C)(C)C)nc21 [Example 3, tert-butyl 4-[[6-[2,6-difluoro-3-[[(3R)-3-fluoropyrrolidin-1-yl]sulfonylamino]phenyl]-8-methyl-7-oxopyrido[2,3-d]pyrimidin-2-yl]amino]butanoate] | 47.4 | 15.1 | 13.1 | 917 | 69.8
Cn1c(=O)c(-c2c(F)ccc(NS(=O)(=O)N3CC[C@@H](F)C3)c2F)cc2cnc(NCCC3CCN(C(=O)OC(C)(C)C)CC3)nc21 [Example 1, tert-Butyl 4-[2-[[6-[2,6-difluoro-3-[[(3R)-3-fluoropyrrolidin-1-yl]sulfonylamino]phenyl]-8-methyl-7-oxopyrido[2,3-d]pyrimidin-2-yl]amino]ethyl]piperidine-1-carboxylate] | 190 | 108 | 63.3 | 3360 | 53.1
CN(C1CC1)S(=O)(=O)Nc1ccc(F)c(-c2cc3cnc(NCC4CC4)nc3n(C)c2=O)c1F [Example 12, 2-(cyclopropylmethylamino)-6-[3-[[cyclopropyl(methyl)sulfamoyl]amino]-2,6-difluorophenyl]-8-methyl-7-oxopyrido[2,3-d]pyrimidine] | 487 | 84.9 | 109 | 2220 | 20.4
